According to US12049615B2, “Systems and methods for electronically and optically monitoring biological samples” (Agilent Technologies, Inc., priority 2020, dated 2024):
Entries after “also recorded” stand apart in the source; their conditions may differ. Where a SMILES comes first, the peptide text is derived from it. The star is where a group is joined. Cbz = O=C(OCc1ccccc1)*

Key:
[1] = test system: A549-Blue cells; test: EC50 from dose response curves of impedance and image-based readouts (area under the curve); settings: area under the curve from drug addition to 60 hours after; four readouts (normalized cell index, green cell number, red cell number, blue nuclei number); four-parameter logistic fit
Description: FIG. 16 provides a table and graphs showing the use of dose response curves to calculate EC50. Using real-time impedance (as represented by normalized cell index) data (FIG. 11A) and live cell imaging (green cell number, red cell number and blue nuclei number) data (FIGS. 14A-C), area under the curve was calculated, and is plotted here as a function of MG132 concentration. Data were fit to a four-parameter logistic equation to determine the EC50.
Using the impedance and image-based readouts presented in Examples II-IV, the EC50 for MG132 was calculated. The area under the curve, spanning from the time of drug addition to 60 hours after drug addition, was plotted as a function of MG132 concentration to yield the dose response curves seen in FIG. 16. The quality of the fitting for the four different readouts is quite good, with R2 values ranging from 0.96 to 0.98. The calculated EC50 values range from 0.86 to 3.0 μm, which is consistent with values reported in the literature. See Han, Y. H. et al. The Effect of MG132, a Proteasome Inhibitor on HeLa Cells in Relation to Cell Growth, Reactive Oxygen Species and GSH. Oncol. Rep. 2009, 22(1), 215-21.

[2] = test system: A549-Blue cells; test: Live cell imaging (blue nuclei, % confluence, caspase 3, annexin V) of drug-treated cells; type: cell-based; settings: for total number of blue nuclei: four highest concentrations (MG132 1.9, 5.5, 16.7, 50 μm; staurosporine 0.125-1 μm, over the subsequent 60 hours)
Description: (§1) Cell maintenance and assays were conducted at 37° C./5% CO2 in F-12K media (ATCC; catalog number 30-2004) containing 10% heat-inactivated FBS (Corning, catalog number 35016CV). While impedance was measured every 15 minutes, images were acquired once per hour. In each well, four fields of view were captured for each channel (brightfield, red, green, and blue). Exposure times were as follows: red (300 ms), green (300 ms), and blue (80 ms). The A549-Blue cell line, which stably expresses nuclear-localized blue fluorescent protein (BFP), was produced by transducing A549 cells (ATCC; catalog number CCL-185) with Agilent eLenti Blue (p/n 8711012) at a multiplicity of infection of 1. From day 2 to day 11 postinfection, 1 μg/mL puromycin was included in the growth medium to select for transductants. For real-time visualization of activated caspase 3, Agilent eCaspase 3 NucView 488 (p/n 8711005) was included in growth medium at a concentration of 5 μm. For real-time visualization of translocated phosphatidylserine, Agilent eAnnexin V Red (p/n 8711007) was included in growth medium at a concentration of 0.25 μg/mL. Agilent E-Plate VIEW microplates (p/n 00300601030) were also used. MG132 (Tocris; catalog number 1748/5) and staurosporine (Calbiochem; catalog number 569396) stocks were dissolved in DMSO.
Although A549-Blue cells already cover most of the well bottom by the 26-hour time point, in the absence of drug, they continue proliferating for another 50 hours, packing cells together at higher density (FIG. 12A). Consistent with this, the impedance signal plateaus at roughly 30 hours while the total number of blue nuclei continues to increase until ˜80 hours (FIG. 12A). Blue nuclei count is Obtained by an image processing algorithm to count the number of blue objects in the blue-fluorescent image. Each blue nuclei nucleus corresponds to an A549 cell as it was transduced to expresses nuclear-localized blue fluorescent protein. As such the number of blue nuclei in a well correspond to the number of viable A549-blue cells present in the well. […] Although, over time, these nuclei shrink in size and begin clustering together, they largely remain intact, explaining why the number of blue nuclei stays fairly constant in FIG. 12C. The above coupling of impedance with imaging clearly provides a more complete and nuanced understanding of drug-mediated A549 cell killing than would be possible using either technique alone. Moving beyond simple cell counts, we next probed the kinetics of biochemical phenomena that are specific to the apoptotic killing pathway.
Along with impedance and blue nuclei counts, the induction of apoptosis by MG132 was also tracked by percent cellular confluence, caspase 3 activation (causing cells to fluoresce green), and phosphatidylserine translocation (causing cells to fluoresce red). […] The bold white arrows in the panels for the 20- and 40-hour time points highlight large membrane blebs that contain phosphatidylserine in their outer leaflet.
Next, the continuous response of A549-Blue cells to MG132 was plotted using each of the image-based readouts. Blue nuclei counts (FIG. 14A) (FIG. 14A) display a dependency on drug concentration that closely reflects the impedance responses seen in (FIG. 11A), Despite the extensive apoptotic response, throughout the course of this assay the % cellular confluence never drops below 50% (FIG. 14B), where the cell confluence number is derived from bright field images through image processing algorithms. This is consistent with the fact that, unlike in vivo contexts, where apoptotic cells and their debris are removed through phagocytosis, in vitro, a large percentage of apoptotic cells continue to occupy the well bottom (FIG. 12B). […] Considering the number of cells that were seeded, their rate of growth, and the percentage of cells that display apoptotic markers (FIG. 13), the output numbers in FIGS. 14A-C are consistent with expectations. […]

[3] = test system: A549-Blue cells; test: Real-time cell-substrate impedance monitoring of drug-induced apoptosis; type: cell-based; settings: for change of impedance signal after drug addition: addition at the 25-hour time point, time- and dose-dependent
Description: as §1
A549-Blue cells (described above) were seeded into an E-PATE VIEW at a density of 10,000 cells/well. As the cells proliferate over the first day, they occupy an expanding surface area on the biosensor array, causing the impedance signal to rise steadily (FIG. 11A and FIG. 11B). If left untreated, the cells grow to confluence, saturating the biosensor array and giving a plateaued impedance signal. […] The kinetics of these drug-induced responses, and the overall shape of the impedance traces, are distinct for each compound. […] Although MG132 and staurosporine both induce apoptosis, they elicit distinct cellular behaviors en route to cell death, which becomes strikingly clear when real-time impedance is multiplexed with live cell imaging.

Row | SMILES | EC50 [1] | number of caspase 3-activated cells exceeds number of phosphatidylserine translocated cells by ([2]; 50 μM MG132, 40 hours following the first 20 hours of drug treatment) | time at which the number of blue nuclei begins to decrease ([2]; after drug addition, 50 μM MG132 (FIG. 15), same time caspase 3 activation and phosphatidylserine translocation become detectable) | number of caspase 3 positive (fluorescence green) objects ([2]; dependent on MG132 concentration (FIG. 14C)) | number of annexin V positive (fluorescent red) objects ([2]; dependent on MG132 concentration (FIG. 14D)) | total number of blue nuclei [2] | change of impedance signal after drug addition [3] | impedance signal at high concentrations ([3]; high concentrations of MG132 (FIG. 11A)) | cell morphology by live cell imaging ([2]; one hour after staurosporine addition) | impedance response at the four highest concentrations ([3]; staurosporine 0.125, 0.250, 0.500, and 1 μm)
1 | CC(C)C[C@@H](C=O)NC(=O)[C@H](CC(C)C)NC(=O)[C@H](CC(C)C)NC(=O)OCc1ccccc1 [MG132] (Cbz-Leu-Leu-Leu-aldehyde) | 860 to 3000 nM | approximately 20% | ~10 h | increase over time | increase over time | decreases over time | marked decrease | drop to zero; also recorded: dropped to zero |  | 
2 | CN[C@@H]1C[C@H]2O[C@@](C)([C@@H]1OC)n1c3ccccc3c3c4c(c5c6ccccc6n2c5c31)C(=O)NC4 [staurosporine] |  |  |  |  |  | modest impact | marked decrease |  | shrunk so severely that their cytoplasm is barely visible; also recorded: massive cytoplasmic shrinkage | plummet within the first few minutes
